Results as given in article PMC10392058 (FEBS Open Bio, 2023).

Columns and labels:
[1] = MDCKII bidirectional permeability, mock transfected cells; type: in vitro ADME; conditions: dog, MDCK
[2] = molecular target: T1, BCRP (Homo sapiens, UniProt Q9UNQ0); assay: MDCKII bidirectional permeability, BCRP expressing cells; conditions: dog
T1 sequence (Q9UNQ0 1-655): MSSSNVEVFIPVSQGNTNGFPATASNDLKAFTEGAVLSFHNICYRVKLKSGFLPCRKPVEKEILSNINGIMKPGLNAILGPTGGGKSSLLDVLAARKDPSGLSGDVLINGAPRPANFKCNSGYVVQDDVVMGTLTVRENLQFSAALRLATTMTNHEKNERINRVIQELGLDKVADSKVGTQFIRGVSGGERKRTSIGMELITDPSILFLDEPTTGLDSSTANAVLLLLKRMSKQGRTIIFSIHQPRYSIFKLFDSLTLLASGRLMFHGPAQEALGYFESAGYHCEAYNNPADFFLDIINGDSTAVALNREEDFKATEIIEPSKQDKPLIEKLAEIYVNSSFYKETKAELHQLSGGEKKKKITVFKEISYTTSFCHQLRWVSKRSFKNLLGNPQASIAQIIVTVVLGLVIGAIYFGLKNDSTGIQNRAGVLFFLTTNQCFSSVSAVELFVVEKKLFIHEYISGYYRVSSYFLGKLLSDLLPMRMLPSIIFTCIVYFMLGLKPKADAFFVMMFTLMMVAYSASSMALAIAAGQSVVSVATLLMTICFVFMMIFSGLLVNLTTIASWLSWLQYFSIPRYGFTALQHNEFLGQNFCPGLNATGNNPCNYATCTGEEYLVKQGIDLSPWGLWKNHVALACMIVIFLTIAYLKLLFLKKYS

[3] = test system: HXA3 release; parameters: method as in PMID 19017997; conditions: 100 μM; cited from earlier work
[4] = test system: HXA3/MRP2‐driven neutrophil epithelial transmigration; assay: HXA3/MRP2‐driven neutrophil transmigration assay (S. typhimurium‐stimulated T84 monolayer, MPO readout); type: cell-based, human; conditions: 100 μM probenecid (positive control); P = 0.0008
Procedure: As described under Materials and Methods, in the neutrophil transmigration assay, a polarized human intestinal cell line monolayer was grown on a transwell insert to mimic the intestinal epithelial barrier. The cells were then apically stimulated by the addition of pathogenic Salmonella typhimurium, eliciting HXA3 efflux via MRP2 into the apical side of the chamber. Fresh, unstimulated human neutrophils were added to the basolateral side of the monolayer, where they detected the HXA3 gradient and migrated through the epithelial monolayer to the apical side. They were then quantified by assay of myeloperoxidase (MPO), a neutrophil biomarker.
Following stimulation via pathogenic S. typhimurium to elicit HXA3 efflux, migration of fresh human neutrophils from the basolateral side of the polarized monolayer (in response to the HXA3 gradient) to the apical side was quantified by MPO activity assay. […]
In the neutrophil transmigration assay (a modified Boyden chamber assay), a polarized T84 human intestinal cell line monolayer was grown on a Transwell insert to mimic the intestinal epithelial barrier. […] Fresh human neutrophils, added to the basolateral side of the monolayer, detected the HXA3 gradient and migrated through the epithelial monolayer to the apical side, where they were quantified by assay of MPO activity, a neutrophil biomarker [47].

[5] = test system: MDCKII‐mock‐LV cells; assay: MDCKII bidirectional permeability, mock transfected cells; type: in vitro ADME
[6] = molecular target: T2, MDCKII‐BCRP‐LV cells (Homo sapiens, UniProt Q9UNQ0); assay: MDCKII bidirectional permeability, BCRP expressing cells
T2 sequence (Q9UNQ0 1-655): T1 sequence (Q9UNQ0 1-655)

Molecule: COc1cc2nc(N3CCN(C(=O)c4ccco4)CC3)nc(N)c2cc1OC [Prazosin]
- Papp A→B at 1 μM [1]: 14.7 ± 13.3 ×10⁻⁶ cm/s
- Papp A→B at 1 μM [2]: 3.02 ± 0.84 ×10⁻⁶ cm/s
- Papp B→A at 1 μM [2]: 53.1 ± 8.15 ×10⁻⁶ cm/s

Molecule: CCCN(CCC)S(=O)(=O)c1ccc(C(=O)O)cc1 [probenecid]
- inhibition of HXA3 release [3]: effectively inhibits HXA3 release
- neutrophil migration inhibition [4]: extremely significant

Molecule: Lucifer yellow [LY]
- Papp A‐B ([5]; LY 40 μg·mL^−1): 0.20 ± 0.03 × 10^−6 cm·s^−1
- Papp A‐B ([5]; LY 40 μg·mL^−1 + ADS051 14 mg·mL^−1 (TA applied apically)): 0.32 ± 0.09 × 10^−6 cm·s^−1
- Papp A‐B ([5]; LY 40 μg·mL^−1 + ADS051 14 mg·mL^−1 (TA applied basolaterally)): 0.46 ± 0.09 × 10^−6 cm·s^−1
- Papp A‐B ([6]; LY 40 μg mL^−1): 0.06 ± 0.01 × 10^−6 cm·s^−1
- Papp A‐B ([6]; LY 40 μg mL^−1 + ADS051 14 mg mL^−1 (TA applied apically)): 0.21 ± 0.02 × 10^−6 cm·s^−1
- Papp A‐B ([6]; LY 40 μg mL^−1 + ADS051 14 mg mL^−1 (TA applied basolaterally)): 0.19 ± 0.01 × 10^−6 cm·s^−1
